Results taken from US20110245293A1, “PHARMACEUTICAL PRODUCT COMPRISING A MUSCARINIC RECEPTOR ANTAGONIST AND A BETA-2-ADRENOCEPTOR AGONIST” (priority 2008, published 2011).
Where a name gives a salt, the structure may show the parent alone.

Tests used:
Adrenergic β2 = target: T1, Adrenergic β2 (Homo sapiens, UniProt P07550); assay: Adrenergic β2 mediated cAMP production in H292 cells (AlphaScreen); type: cell-based; details: Intrinsic Activity as a fraction relative to the maximum activity of formoterol
T1 construct: endogenous in cells; host or cells: H292 cells
T1 sequence (P07550 whole entry): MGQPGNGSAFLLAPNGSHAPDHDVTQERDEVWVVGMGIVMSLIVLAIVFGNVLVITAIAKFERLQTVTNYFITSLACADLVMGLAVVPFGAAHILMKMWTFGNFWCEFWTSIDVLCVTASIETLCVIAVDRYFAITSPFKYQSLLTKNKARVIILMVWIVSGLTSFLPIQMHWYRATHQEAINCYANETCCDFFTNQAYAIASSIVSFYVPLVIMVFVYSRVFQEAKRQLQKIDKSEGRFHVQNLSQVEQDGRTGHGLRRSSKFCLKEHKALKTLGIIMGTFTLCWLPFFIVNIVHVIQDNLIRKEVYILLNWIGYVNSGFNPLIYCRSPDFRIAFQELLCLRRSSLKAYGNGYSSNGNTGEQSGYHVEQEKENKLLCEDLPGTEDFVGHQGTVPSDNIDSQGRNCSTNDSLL
Protocol: Adrenergic β2 Mediated cAMP Production
H292 cells were grown in 225 cm2 flasks incubator at 37° C., 5% CO2 in RPMI medium containing, 10% (v/v) FBS (foetal bovine serum) and 2 mM L-glutamine.
Adherent H292 cells were removed from tissue culture flasks by treatment with Accutase™ cell detachment solution for 15 minutes. Flasks were incubated for 15 minutes in a humidified incubator at 37° C., 5% CO2. Detached cells were re-suspended in RPMI media (containing 10% (v/v) FBS and 2 mM L-glutamine) at 0.05×10^6 cells per mL. 5000 cells in 100 μL were added to each well of a tissue-culture-treated 96-well plate and the cells incubated overnight in a humidified incubator at 37° C., 5% CO2. The culture media was removed and cells were washed twice with 100 μL assay buffer and replaced with 50 μL assay buffer (HBSS solution containing 10 mM HEPES pH7.4 and 5 mM glucose). Cells were rested at room temperature for 20 minutes after which time 25 μL of rolipram (1.2 mM made up in assay buffer containing 2.4% (v/v) dimethylsulphoxide) was added. Cells were incubated with rolipram for 10 minutes after which time Compound A was added and the cells were incubated for 60 minutes at room temperature. The final rolipram concentration in the assay was 300 μM and final vehicle concentration was 1.6% (v/v) dimethylsulphoxide. The reaction was stopped by removing supernatants, washing once with 100 μL assay buffer and replacing with 50 μL lysis buffer. The cell monolayer was frozen at −80° C. for 30 minutes (or overnight).
The concentration of cAMP (cyclic adenosine monophosphate) in the cell lysate was determined using AlphaScreen™ methodology. […] The AlphaScreen™ signal was measured using an EnVision spectrophotometer (Perkin-Elmer Inc.) with the recommended manufacturer's settings. cAMP concentrations were determined by reference to a calibration curve determined in the same experiment using standard cAMP concentrations. […] Intrinsic Activity was expressed as a fraction relative to the maximum activity determined for formoterol in each experiment.

[1] = Dynamic vapour sorption (DVS) analysis of crystalline material; type: physicochemical; details: at 80% RH, 25° C.
Protocol: Dynamic vapour sorption (DVS) analysis was performed on a Surface Measurement systems (SMS) DVS-Intrinsic moisture sorption analyser. The instrument was controlled by SMS Analysis Suite software (DVS-Intrinsic Control v1.0.0.30). Analysis of the data was performed using Microsoft Excel 2007 together DVS Standard Analysis Suite (v6.0.0.7). Sample temperature was maintained at 25° C. and the sample humidity was obtained by mixing streams of wet and dry nitrogen at a total flow rate of 200 mlmin^−1. The relative humidity was measured using a calibrated Rotronic probe (dynamic range 1-100% Relative Humidity (RH)) located close to the sample. The weight change of the sample as a function of % RH was constantly monitored by the microbalance (accuracy±0.005 mg). Typically a PXRD would be run prior to analysis. 20 mg of sample was then placed in a tared stainless steel mesh basket under ambient conditions. The sample was loaded and unloaded at 40% RH and 25° C. (typical room conditions) and the sample subjected to a graduated DVS regime over 2 cycles using the parameters shown in Table 1.

[2] = Gravimetric Vapour Sorption (GVS) of crystalline material; type: physicochemical; details: at 80% RH
Protocol: Gravimetric Vapour Sorption (GVS) profiles were measured using a Surface Measurements Systems Dynamic Vapour Sorption DVS-1 or a DVS Advantage instrument. The solid sample ca. 1-5 mg was placed into a glass vessel and the weight of the sample was recorded during a dual cycle step method (40 to 90 to 0 to 90 to 0% relative humidity (RH), in steps of 10% RH).

| Structure (SMILES) | β2 Int Act (Adrenergic β2) | GVS mass increase [2] | further results |
| --- | --- | --- | --- |
| CCN(CC)CCN(CCNCCc1ccc(O)c2[nH]c(=O)sc12)C(=O)CCOCCc1cccc2ccccc12 [BA1, N-[2-(Diethylamino)ethyl]-N-(2-{[2-(4-hydroxy-2-oxo-2,3-dihydro-1,3-benzothiazol-7-yl)ethyl]amino}ethyl)-3-[2-(1-naphthyl)ethoxy]propanamide dihydrobromide] | 0.8 | – | – |
| CCN(CC)CCN(CCNCCc1ccc(O)c2[nH]c(=O)sc12)C(=O)CCOCCc1cccc(Cl)c1 [BA2, N-[2-(Diethylamino)ethyl]-N-(2-{[2-(4-hydroxy-2-oxo-2,3-dihydro-1,3-benzothiazol-7-yl)ethyl]amino}ethyl)-3-[2-(3-chlorophenyl)ethoxy]propanamide dihydrobromide] | 0.7 | – | – |
| O=c1[nH]c2c(O)ccc([C@@H](O)CNCCSCCCNCCc3ccccc3Cl)c2s1 [BA3, 7-[(1R)-2-({2-[(3-{[2-(2-Chlorophenyl)ethyl]amino}propyl)thio]ethyl}amino)-1-hydroxyethyl]-4-hydroxy-1,3-benzothiazol-2(3H)-one dihydrobromide] | 0.8 | – | – |
| O=S(=O)([O-])c1ccccc1.O[C@](c1ccccc1)(c1cc(C[N+]23CCC(CC2)[C@@H](Oc2ccc(F)cc2)C3)on1)C1CCCCC1 [Example 2, (R)-1-[3-((R)-Cyclohexyl-hydroxy-phenyl-methyl)-isoxazol-5-ylmethyl]-3-(4-fluoro-phenoxy)-1-azonia-bicyclo[2.2.2]octane benzenesulfonate] | – | – | DVS weight increase [1]: 0.2 % (% w/w) |
| O[C@](c1ccccc1)(c1cc(C[N+]23CCC(CC2)[C@@H](Oc2cccc(F)c2)C3)on1)C1CCCCC1.[Cl-] [Example 3, (R)-1-[3-((R)-Cyclohexyl-hydroxy-phenyl-methyl)-isoxazol-5-ylmethyl]-3-(3-fluoro-phenoxy)-1-azonia-bicyclo[2.2.2]octane chloride] | – | – | GVS mass increase 1st cycle ([2]; 1st cycle): approximately 5%; GVS mass increase 2nd cycle ([2]; 2nd cycle): ~6.5% |
| O[C@](c1ccccc1)(c1cc(C[N+]23CCC(CC2)[C@@H](Oc2cccc(F)c2)C3)on1)C1CCCCC1 [Example 4, (R)-1-[3-((R)-Cyclohexyl-hydroxy-phenyl-methyl)-isoxazol-5-ylmethyl]-3-(3-fluoro-phenoxy)-1-azonia-bicyclo[2.2.2]octane 2-hydroxy-ethanesulfonate] | – | no mass increase | – |
| O[C@](c1ccccc1)(c1nnc(C[N+]23CCC(CC2)[C@@H](Oc2ccc(F)cc2)C3)o1)C1CCCCC1.[Br-] [Example 5, (R)-1-[5-((R)-Cyclohexyl-hydroxy-phenyl-methyl)-[1,3,4]oxadiazol-2-ylmethyl]-3-(4-fluoro-phenoxy)-1-azonia-bicyclo[2.2.2]octane bromide] | – | approximately 0.8% | – |
| Cc1ccc(O[C@H]2C[N+]3(Cc4cc(C(O)(c5ccccc5)c5ccccc5)no4)CCC2CC3)cc1F.[Br-] [Example 7, (R)-3-(3-Fluoro-4-methyl-phenoxy)-1-[3-(hydroxy-diphenyl-methyl)-isoxazol-5-ylmethyl]-1-azonia-bicyclo[2.2.2]octane bromide] | – | approximately 0.1% | – |
